In patent US8609381B2, “Methods to control bacterial growth in fermentation processes” (Dow Brasil Sudeste Industrial Ltda., priority 2007, dated 2013):

Key:
yeast = experiment: Effect of biocide on yeast level (SDA medium plate count); format: cell-based; settings: biocide concentration 50 ppm, 2 hours after contact
Source text: (§1) SDA medium is synthetic defined agar, and PCA medium is plate count agar. Dow Antimicrobial™ 7287 is a composition containing 20 percent 2,2-dibromo-3-nitrilopropionamide (DBNPA), sold by The Dow Chemical Company.

bacteria = experiment: Effect of biocide on bacteria level (PCA medium plate count); format: cell-based; settings: biocide concentration 50 ppm, 2 hours after contact
Source text: as §1

Compound	Yeast level (yeast)	Bacteria level (bacteria)
O=CCCCC=O [UCARCIDE ™ 250, glutaraldehyde]	5.0 × 10^4 cfu/ml	5.0 × 10^5 cfu/ml
Diethyl Carbamate	<1.0 × 10^4 cfu/ml	2.6 × 10^7 cfu/ml
